# Measurements taken from US8420823B2, “Long-chain fatty acyl elongase inhibitor comprising arylsulfonyl derivative as active ingredient” (MSD K.K., priority 2008, dated 2013).
# Molecular target: T1, human LCE (Homo sapiens, UniProt Q9H5J4)
# T1 sequence (Q9H5J4 1-265): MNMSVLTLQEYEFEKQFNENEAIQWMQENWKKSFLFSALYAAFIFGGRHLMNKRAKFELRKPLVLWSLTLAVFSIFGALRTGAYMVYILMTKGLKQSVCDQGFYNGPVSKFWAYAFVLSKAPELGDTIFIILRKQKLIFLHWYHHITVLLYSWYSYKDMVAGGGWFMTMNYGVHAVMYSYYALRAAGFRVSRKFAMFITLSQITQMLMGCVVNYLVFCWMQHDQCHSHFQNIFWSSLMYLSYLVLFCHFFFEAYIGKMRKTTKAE
# Assay: LCE enzyme activity-inhibitory test
# Format: biochemical
# Details: [14C]-malonyl CoA / palmitoyl CoA substrate, 37° C., 90 minutes
# Outline: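 Human LCE (100 μg/mL in enzyme solution) was incubated 90 min at 37 °C in 100 mM potassium phosphate pH 6.5 with palmitoyl CoA, malonyl CoA, [14C]-malonyl CoA, rotenone and fatty acid-free BSA. Acid-stopped, hydrolyzed products were captured on GF/C filters and counted by scintillation. Inhibition was calculated against DMSO control.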
row,SMILES,IC50
1,"COc1ccccc1NC(=O)c1cccc(S(=O)(=O)c2ccccc2)c1 [Example 134, N-(2-methoxyphenyl)-3-(phenylsulfonyl)benzamide]",420 nM
2,"COc1cccnc1NC(=O)c1cccc(S(=O)(=O)c2ccccc2)c1 [Example 135, N-(3-methoxypyridin-2-yl)-3-(phenylsulfonyl)benzamide]",510 nM
3,"CC(C)c1ccc(NC(=O)c2cccc(S(=O)(=O)c3ccc(F)cc3)c2)cc1 [Example 137, 3-[(4-fluorophenyl)sulfonyl]-N-(4-isopropylphenyl)benzamide]",690 nM
4,"O=C(Nc1cc(C2CC2)n[nH]1)c1cccc(S(=O)(=O)c2ncccn2)c1 [Example 140, N-(3-cyclopropyl-1H-pyrazol-5-yl)-3-(pyrimidin-2-ylsulfonyl)benzamide]",380 nM
5,"CC(C)Oc1ccc(NC(=O)c2cccc(S(=O)(=O)c3cnccn3)c2)cc1 [Example 141, N-(4-isopropoxyphenyl)-3-(pyrazin-2-ylsulfonyl)benzamide]",1500 nM
6,"CC(C)Oc1ccc(NC(=O)c2cccc(S(=O)(=O)c3nc[nH]n3)c2)cc1 [Example 142, N-(4-isopropoxyphenyl)-3-(1H-1,2,4-triazol-3-ylsulfonyl)benzamide]",5100 nM
7,"CC(C)Oc1ccc(NC(=O)c2cccc(S(=O)(=O)c3cn[nH]c3)c2)cc1 [Example 143, N-(4-isopropoxyphenyl)-3-(1H-pyrazol-4-ylsulfonyl)benzamide]",4500 nM
8,"COc1ccc(NC(=O)c2cccc(S(=O)(=O)C3CCCCC3)c2)cc1 [Example 146, 3-(Cyclohexylsulfonyl)-N-(4-methoxyphenyl)benzamide]",1100 nM
9,"COc1ccc(NC(=O)c2cc(S(=O)(=O)N3CCCCC3)ccc2OC)cc1 [Example 149, 2-Methoxy-N-(4-methoxyphenyl)-5-(piperidin-1-ylsulfonyl)benzamide]",1000 nM
10,"CC(C)Oc1ccc(NC(=O)c2cc(S(=O)(=O)N3CCCCC3)ccc2O)cc1 [Example 151, 2-Hydroxy-N-(4-isopropoxyphenyl)-5-(piperidin-1-ylsulfonyl)benzamide]",3600 nM
11,"CC(C)Oc1ccc(NC(=O)c2cc(S(=O)(=O)N3CCCCC3)ccc2OCCC#N)cc1 [Example 153, 2-(Cyanoethoxy)-N-(4-isopropoxyphenyl)-5-(piperidin-1-ylsulfonyl)benzamide]",420 nM
12,"CC(C)Oc1ccc(NC(=O)c2cc(S(=O)(=O)N3CCCCC3)ccc2OCC(=O)O)cc1 [Example 154, [2-{[(4-Isopropoxyphenyl)amino]carbonyl}-4-(piperidin-1-ylsulfonyl)phenoxy]acetic acid]",300 nM
13,"COc1ccc(C(=O)Nc2ccc(C(C)C)cc2)cc1S(=O)(=O)N1CCCCC1 [Example 155, N-(4-isopropylphenyl)-4-methoxy-3-(piperidin-1-ylsulfonyl)benzamide]",5700 nM
14,"CC(C)c1ccc(NC(=O)c2cccc(S(=O)(=O)c3ccccc3)n2)cc1 [Example 157, N-(4-isopropylphenyl)-6-(phenylsulfonyl)pyridine-2-carboxamide]",1400 nM
15,"CC(C)c1ccc(NC(=O)c2cncc(S(=O)(=O)c3ccccc3)c2)cc1 [Example 158, N-(4-isopropylphenyl)-5-(phenylsulfonyl)nicotinamide]",3400 nM
16,"CC(C)Oc1ccc(C(=O)NCCc2cccc(S(=O)(=O)N3CCCCC3)c2)cc1 [Example 161, 4-Isopropoxy-N-{2-[3-(piperidin-1-ylsulfonyl)phenyl]ethyl}benzamide]",4800 nM
17,"CC(C)Oc1ccc(NC(=O)CCc2cccc(S(=O)(=O)N3CCCCC3)c2)cc1 [Example 162, N-(4-isopropoxyphenyl)-3-[3-(piperidin-1-ylsulfonyl)phenyl]propanamide]",1500 nM

# Stronger by IC50, values ahead:
row,IC50,SMILES
1,160 nM,"CC(C)c1ccc(NC(=O)c2cccc(S(=O)(=O)c3ccccc3)c2)cc1 [Example 136, N-(4-isopropylphenyl)-3-(phenylsulfonyl)benzamide]"
2,240 nM,"CC(C)Oc1ccc(NC(=O)c2cccc(S(=O)(=O)c3ncccn3)c2)nc1 [Example 138, N-(5-isopropoxypyridin-2-yl)-3-(pyrimidin-2-ylsulfonyl)benzamide]"
3,130 nM,"CC(C)Oc1ccc(NC(=O)c2cccc(S(=O)(=O)c3ncccn3)c2)cc1 [Example 139, N-(4-isopropoxyphenyl)-3-(pyrimidin-2-ylsulfonyl)benzamide]"
4,74 nM,"CC(C)Oc1ccc(NC(=O)c2cccc(S(=O)(=O)C3CCCCC3)c2)cc1 [Example 144, 3-(Cyclohexylsulfonyl)-N-(4-isopropoxyphenyl)benzamide]"
5,210 nM,"COc1ccccc1NC(=O)c1cccc(S(=O)(=O)C2CCCCC2)c1 [Example 145, 3-(Cyclohexylsulfonyl)-N-(2-methoxyphenyl)benzamide]"
6,190 nM,"COc1cccnc1NC(=O)c1cccc(S(=O)(=O)C2CCCCC2)c1 [Example 147, 3-(Cyclohexylsulfonyl)-N-(3-methoxypyridin-2-yl)benzamide]"
7,31 nM,"COc1ccc(S(=O)(=O)N2CCCCC2)cc1C(=O)Nc1ccc(C(C)C)cc1 [Example 150, N-(4-isopropylphenyl)-2-methoxy-5-(piperidin-1-ylsulfonyl)benzamide]"
8,180 nM,"CCOc1ccc(S(=O)(=O)N2CCCCC2)cc1C(=O)Nc1ccc(OC(C)C)cc1 [Example 152, 2-Ethoxy-N-(4-isopropoxyphenyl)-5-(piperidin-1-ylsulfonyl)benzamide]"
9,150 nM,"COc1ccc(S(=O)(=O)N2CCCCC2)cc1C(=O)Nc1ncccc1OC [Example 156, 2-Methoxy-N-(3-methoxypyridin-2-yl)-5-(piperidin-1-ylsulfonyl)benzamide]"
10,230 nM,"CC(C)Oc1ccc(C(=O)NCc2cccc(S(=O)(=O)N3CCCCC3)c2)cc1 [Example 159, 4-Isopropoxy-N-[3-(piperidin-1-ylsulfonyl)benzyl]benzamide]"
11,130 nM,"CC(C)Oc1ccc(NC(=O)Cc2cccc(S(=O)(=O)N3CCCCC3)c2)cc1 [Example 160, N-(4-isopropoxyphenyl)-2-[3-(piperidin-1-ylsulfonyl)phenyl]acetamide]"
